Measured values published in ChEMBL document CHEMBL3045510, “Phyllostoxin and phyllostin, bioactive metabolites produced by Phyllosticta cirsii, a potential mycoherbicide for Cirsium arvense biocontrol” (J Agric Food Chem, 2008).
Active and inactive are the calls of the source. No cut-off for these calls is given here.

Legend:
Artemia salina = experiment: Toxicity against Artemia salina (brine shrimp) up to 1 mM; format: organism-based; conditions: in vivo
Lactobacillus sp. = experiment: Antimicrobial activity against Lactobacillus sp. up to 100 ug/disk; format: functional, organism-based
Escherichia coli = experiment: Antimicrobial activity against Escherichia coli up to 100 ug/disk; format: functional, organism-based
Geotrichum candidum = experiment: Antimicrobial activity against Galactomyces geotrichum up to 100 ug/disk; format: functional, organism-based
Cirsium arvense = experiment: Herbicidal activity against Cirsium arvense (Canada thistle) assessed induction of necrosis on leaves as 1 mM; format: functional, organism-based

Compound	Activity (Artemia salina)	Activity (Lactobacillus sp.)	Activity (Escherichia coli)	Activity (Geotrichum candidum)	Activity (Cirsium arvense)
CCC(=O)C1(C)C(=O)c2c1ccc(C)c2OC(C)=O (stereo not given) [PHYLLOSTOXIN]	Non-toxic	inactive	inactive	inactive	Active
COC(=O)C1=C[C@@H](O)[C@@H]2OC(=O)[C@@H](C)O[C@H]2C1 [PHYLLOSTIN]	Non-toxic	inactive	inactive	inactive	inactive
